The target of series [1] is T1, recombinant human 17β-HSD2 (Homo sapiens, UniProt P37059).
T1 construct: made in house; host or cells: Sd9 (Sf9) insect cells, baculovirus (Bac to Bac Expression System)
T1 sequence (P37059 1-387): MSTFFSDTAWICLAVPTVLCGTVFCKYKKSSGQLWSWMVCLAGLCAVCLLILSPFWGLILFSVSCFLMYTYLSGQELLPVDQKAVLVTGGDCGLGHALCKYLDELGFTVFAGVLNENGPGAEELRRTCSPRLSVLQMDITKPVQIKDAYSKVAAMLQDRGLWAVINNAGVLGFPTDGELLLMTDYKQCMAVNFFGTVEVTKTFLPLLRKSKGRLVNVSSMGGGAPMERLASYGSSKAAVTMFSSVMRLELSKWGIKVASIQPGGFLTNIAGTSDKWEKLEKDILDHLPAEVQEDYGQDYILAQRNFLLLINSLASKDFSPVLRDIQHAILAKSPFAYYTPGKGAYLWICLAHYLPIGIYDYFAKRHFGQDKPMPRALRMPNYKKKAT
The experiment in a line: Inhibition of recombinant human 17β-HSD2 (conversion of 3H-estradiol to estrone, HPLC). In kind it is biochemical. As to conditions: inhibitor 1 μM; 50 nM estradiol, 1 mM NADH, 30 min RT. The protocol:
17β-HSD2 production and isolation: Similarly to 17β-HSD1 the Recombinant baculovirus was generated by the “Bac to Bac Expression System” (Invitrogen). Recombinant bacmid was transfected to Sd9 insect cells using “Cellfectin Reagent” (Invitrogen). 60 h later cells were harvested and supernatant were fractionated by the following protocol: • cells were dissolved into 40 ml of A-buffer (40 mM TRIS, pH8.0, 20% glycerol, 20 μM NAD, 0.4 mM PMSF, 150 mM NaCl, 0.5% dodecyl-β-maltoside+protease inhibitor cocktail) • cells were sonicated • lysate was incubated on ice for 15 min • lysate was centrifuged 5000 rpm 15 min, +4° C. • centrifugation of the supernatant 180 000 g 30 min, +4° C. • pellet was dissolved into 8 ml of A-buffer • not resuspended material was removed by centrifugation 5000 rpm 15 min, +4° C. • the clear supernatant was divided into 100 μl aliquots and were stored frozen until determination of enzymatic activity.
The amount of 17β-HSD2 was analysed by immunoblotting and total protein concentration of each extract batch was determined.
Assay—Inhibition of recombinant human 17β-HSD2: Protein homogenate (4 μg/ml) was incubated in 20 mM KH2PO4 pH 8.5 with 50 nM estradiol (including 800 000 cpm/ml of ^3H-estradiol) and 1 mM […] for 30 min at RT, in the presence of the potential inhibitor at concentrations 1 μM or 0.1 μM. Inhibitor stock solutions were prepared in DMSO. Final concentration of DMSO was adjusted to 1% in all samples. The enzyme reaction was stopped by addition of 10% trichloroacetic acid (final concentration). Samples were centrifuged in a microtiter plate at 4000 rpm for 10 min. Supernatants were applied to reverse phase HPLC on a Waters Symmetry C18 column, equipped with a Waters Sentry Guard column. Isocratic HPLC runs were performed at RT at a flow rate ofl ml/min in acetonitrile:water 48:52 as running solvent. Radioactivity was monitored in the eluate by a Packard Flow Scintillation Analyzer. Total radioactivity for estrone and estradiol were determined in each sample and percent conversion of estradiol to estrone was calculated according to the following formula:
(§1) Percent inhibition was calculated flowingly: % inhibition=100−% conversion

Series [2] deals with T2, recombinant human 17β-HSD1 (Homo sapiens, UniProt P14061).
T2 construct: made in house; host or cells: Sd9 (Sf9) insect cells, baculovirus (Bac to Bac Expression System)
T2 sequence (P14061 1-328): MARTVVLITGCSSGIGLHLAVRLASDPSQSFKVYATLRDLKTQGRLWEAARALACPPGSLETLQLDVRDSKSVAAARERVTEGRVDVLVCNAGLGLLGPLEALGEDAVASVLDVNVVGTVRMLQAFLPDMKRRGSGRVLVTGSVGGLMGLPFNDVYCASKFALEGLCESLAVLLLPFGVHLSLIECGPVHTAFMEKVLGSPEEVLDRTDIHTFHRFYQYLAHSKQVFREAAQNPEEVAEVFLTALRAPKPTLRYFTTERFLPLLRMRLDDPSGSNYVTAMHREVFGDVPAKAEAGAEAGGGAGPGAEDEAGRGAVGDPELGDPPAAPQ
The series is described as follows: Inhibition of recombinant human 17β-HSD1 (conversion of 3H-estrone to estradiol, HPLC). In kind it is biochemical. The settings on record: inhibitor 1 μM, 30 nM estrone, 1 mM NADPH, 30 min RT; for inhibition at 1 µM: read-out: 17β-HDS1 Inhibition % at 1 μM. The protocol:
17β-HSD1 production and isolation: Recombinant baculovirus was generated by the “Bac to Bac Expression System” (Invitrogen). Recombinant bacmid was transfected to Sd9 insect cells using “Cellfectin Reagent” (Invitrogen). 60 h later cells were harvested; the microsomal fraction was isolated as described by Puranen, T. J., Poutanen, M. H., Peltoketo, H. E., Vihko, P. T. and Vihko, R. K. (1994) Site-directed mutagenesis of the putative active site of human 17 β-hydroxysteroid dehydrogenase type 1. Biochem. J. 304: 289-293. Aliquots were stored frozen until determination of enzymatic activity.
Assay—Inhibition of recombinant human 17β-HSD1: Protein homogenate (0.1 μg/ml) was incubated in 20 mM KH2PO4 pH 7.4 with 30 nM estrone (including 800 000 cpm/ml of ^3H-estrone) and 1 mM NADPH for 30 min at RT, in the presence of the potential inhibitor at concentrations 1 μM or 0.1 μM. Inhibitor stock solutions were prepared in DMSO. Final concentration of DMSO was adjusted to 1% in all samples. The enzyme reaction was stopped by addition of 10% trichloroacetic acid (final concentration). Samples were centrifuged in a microtiter plate at 4000 rpm for 10 min. Supernatants were applied to reverse phase HPLC on a Waters Symmetry C18 column, equipped with a Waters Sentry Guard column. Isocratic HPLC runs were performed at RT at a flow rate of 1 ml/min in acetonitrile:water 48:52 as running solvent. Radioactivity was monitored in the eluate by a Packard Flow Scintillation Analyzer. Total radioactivity for estrone and estradiol were determined in each sample and percent conversion of estrone to estradiol was calculated according to the following formula:
as §1

The nature of series [3]: Metabolic stability assay. The format is in vitro ADME. The settings on record: human liver homogenate or microsomes. The protocol: The in vitro metabolic stability of the parent compounds was determined for exemplified compounds using human liver microsome and homogenate incubations. The incubation time points used with or without appropriate cofactors were 0 min and 60 min. Samples were collected at both time points and substrates were detected using LC/PDA/TOF-MS. In vitro metabolic stability (% remaining after 60 min in human liver homogenate or microsomes) of the compounds were calculated and the results are summarized in Table 4.

Take “3-{(13S,15R)-4-Fluoro-3-hydroxy-17-[(E)-methoxyimino]-13-methyl-7,8,9,11,12,13,14,15,16,17-decahydro-6H-cyclopenta[a]phenanthren-15-yl}-N-(5-methylthiazol-2-yl)propanamide [VIV-16]”: in series [1], the “17β-HSD2 Inhibition % at 1 μM” value turned out to be 7%. Also, the “17β-HDS1 Inhibition % at 1 μM” value in series [2] was determined as 90%. Moreover, the “In vitro metabolic stability, % remaining after 60 min” value in series [3] was 68%.
Regarding `Cc1cnc(NC(=O)CC[C@@H]2CC(=O)[C@@]3(C)CCC4c5ccc(O)cc5CCC4C23)s1` (stereo partly shown) [VII, reference compound], the “In vitro metabolic stability, % remaining after 60 min” value in series [3] is 13%.
Usually inhibition stands for the drop in the measured response relative to a control, in per cent. In the case of `CO/N=C1\C[C@@H](CCC(=O)Nc2ncc(C)s2)C2C3CCc4cc(O)c(Cl)cc4C3CC[C@]12C` (stereo partly drawn) [VIV-12, 3-{(13S,15R)-2-Chloro-3-hydroxy-17-[(E)-methoxyimino]-13-methyl-7,8,9,11,12,13,14,15,16,17-decahydro-6H-cyclopenta[a]phenanthren-15-yl}-N-(5-methylthiazol-2-yl)propanamide], the results for the inhibition at 1 µM in series [1] and in series [2] were 3% and 95%, respectively. Besides, in series [3], the “In vitro metabolic stability, % remaining after 60 min” value is on record as 94%.
On to “3-{(13S,15R)-2-Fluoro-3-hydroxy-17-[(E)-methoxyimino]-13-methyl-7,8,9,11,12,13,14,15,16,17-decahydro-6H-cyclopenta[a]phenanthren-15-yl}-N-(5-methylthiazol-2-yl)propanamide [VIV-15]”, for which the “17β-HSD2 Inhibition % at 1 μM” value in series [1] came out at 5%. In series [2], the “17β-HDS1 Inhibition % at 1 μM” value is on record as 94%. Besides, the “In vitro metabolic stability, % remaining after 60 min” value in series [3] is recorded as 92%.
Consider `CO/N=C1\C[C@@H](CCC(=O)Nc2ncc(C)s2)C2C3CCc4cc(O)c([N+](=O)[O-])cc4C3CC[C@]12C` (stereo partly drawn) [VIV-2, 3-{(13S,15R)-3-Hydroxy-17-[(E)-methoxyimino]-13-methyl-2-nitro-7,8,9,11,12,13,14,15,16,17-decahydro-6H-cyclopenta[a]phenanthren-15-yl}-N-(5-methylthiazol-2-yl)propanamide], for which the figures for the inhibition at 1 µM in series [1] and in series [2] were 3% and 64%, respectively.
As for `CO/N=C1\C[C@@H](CCC(=O)Nc2ncc(C)s2)C2C3CCc4c(ccc(O)c4Cl)C3CC[C@]12C` (stereo partly drawn) [VIV-13, 3-{(13S,15R)-4-Chloro-3-hydroxy-17-[(E)-methoxyimino]-13-methyl-7,8,9,11,12,13,14,15,16,17-decahydro-6H-cyclopenta[a]phenanthren-15-yl}-N-(5-methylthiazol-2-yl)propanamide], the results for the inhibition at 1 µM in series [1] and in series [2] were 5% and 86%, respectively.
As to `CO/N=C1\C[C@@H](CCC(=O)Nc2ncc(C)s2)C2C3CCc4c(ccc(O)c4[N+](=O)[O-])C3CC[C@]12C` (stereo partly drawn) [VIV-4, 3-{(13S,15R)-3-Hydroxy-17-[(E)-methoxyimino]-13-methyl-4-nitro-7,8,9,11,12,13,14,15,16,17-decahydro-6H-cyclopenta[a]phenanthren-15-yl}-N-(5-methylthiazol-2-yl)propanamide], the inhibition at 1 µM in series [1] turned out to be 16%; in series [2], 90%.
The matching figures for `CO/N=C1\C[C@@H](CCC(=O)Nc2ncc(C)s2)C2C3CCc4c(cc(Br)c(O)c4F)C3CC[C@]12C` (stereo partly drawn) [VIV-17, 3-{(13S,15R)-2-Bromo-4-fluoro-3-hydroxy-17-[(E)-methoxyimino]-13-methyl-7,8,9,11,12,13,14,15,16,17-decahydro-6H-cyclopenta[a]phenanthren-15-yl}-N-(5-methylthiazol-2-yl)propanamide]: 2% and 83%.
As to `Cc1cnc(NC(=O)CC[C@@H]2C/C(=N\O)[C@@]3(C)CCC4c5cc(Br)c(O)cc5CCC4C23)s1` (stereo partly drawn) [VIV-25, 3-{(13S,15R)-2-Bromo-3-hydroxy-17-[(E)-hydroxyimino]-13-methyl-7,8,9,11,12,13,14,15,16,17-decahydro-6H-cyclopenta[a]phenanthren-15-yl}-N-(5-methylthiazol-2-yl)propanamide], the inhibition at 1 µM in series [1] was determined as 25%; in series [2] it was 77%.
`Cc1cnc(NC(=O)CC[C@@H]2C/C(=N\O)[C@@]3(C)CCC4c5ccc(O)cc5CCC4C23)s1` (stereo partly drawn) [VIV-22, 3-{(13S,15R)-3-Hydroxy-17-[(E)-hydroxyimino]-13-methyl-7,8,9,11,12,13,14,15,16,17-decahydro-6H-cyclopenta[a]phenanthren-15-yl}-N-(5-methylthiazol-2-yl)propanamide]: the inhibition at 1 µM is 4% in series [1] and 81% in series [2].
With `CO/N=C1\C[C@@H](CCC(=O)Nc2ncc(C)s2)C2C3CCc4c(cc(Br)c(O)c4Br)C3CC[C@]12C` (stereo partly drawn) [VIV-11, 3-{(13S,15R)-2,4-Dibromo-3-hydroxy-17-[(E)-methoxyimino]-13-methyl-7,8,9,11,12,13,14,15,16,17-decahydro-6H-cyclopenta[a]phenanthren-15-yl}-N-(5-methylthiazol-2-yl)propanamide], the figures for the inhibition at 1 µM in series [1] and in series [2] were 3% and 78%, respectively.
In the case of `CO/N=C1\C[C@@H](CCC(=O)Nc2ncc(C)s2)C2C3CCc4c(ccc(O)c4Br)C3CC[C@]12C` (stereo partly drawn) [VIV-10, 3-{(13S,15R)-4-Bromo-3-hydroxy-17-[(E)-methoxyimino]-13-methyl-7,8,9,11,12,13,14,15,16,17-decahydro-6H-cyclopenta[a]phenanthren-15-yl}-N-(5-methylthiazol-2-yl)propanamide], the inhibition at 1 µM stood at 6% in series [1] and 78% in series [2].
Take `CO/N=C1\C[C@@H](CCC(=O)Nc2ncc(C)s2)C2C3CCc4c(ccc(O)c4C#N)C3CC[C@]12C` (stereo partly drawn) [VIV-20, 3-{(13S,15R)-3-hydroxy-17-[(E)-methoxyimino]-13-methyl-4-nitrile-7,8,9,11,12,13,14,15,16,17-decahydro-6H-cyclopenta[a]phenanthren-15-yl}-N-(5-methylthiazol-2-yl)propanamide]: the inhibition at 1 µM in series [1] turned out to be 0%; in series [2], 73%.
